# Data published in US20240374572A1, “METHODS FOR EXTENDING THE LIFESPAN OF CELLS AND ORGANISMS” (priority 2021, published 2024).
# Columns and labels:
# N2 worms = test: Paraquat-induced oxidative stress in N2 worms; assay type: in vivo, Caenorhabditis elegans; settings: FIG. 2C
# Method: Encouraged by the clear life-extension effect on worm model under regular culture conditions in the above example, the protective effect of ergothioneine under stresses was examined. In the first experiment, the worm was treated with paraquat to induce oxidative stress. Under the paraquat-induced oxidative stress conditions, N2 worms' life span was decreased by nearly 50% (FIG. 2C vs. FIG. 2A).
# daf-16 mutant worm = test: Lifespan of daf-16 mutant worm; assay type: in vivo, Caenorhabditis elegans; settings: FIG. 3A
# Description: To address this issue, the large collection of C. elegans mutants in Caenorhabditis Genetics Center was again utilized in this example. Among the mutants examined, the daf-16 mutant results stood out (FIGS. 3A, 3B, and 3C). […] Among genes of the IIS pathway, daf-2 encodes an insulin-like receptor, and it is the starting point of the pathway that eventually leads to daf-16. Daf-16 is the hub, where information from several different pathways merge and then use to regulate many physiological processes. Worm daf-16 mutant has an average life-span that is […] the N2 worm (FIGS. 3A, 3B, and 3C; FIGS. 4-6).
# [1] = through transporter OCTN1; humans; cited from earlier work
# [2] = test system: pancreatic/renal kallikrein (Klk1) related Kallikrein system; test: RNA-seq analysis of peri-infarct area of the MCAO model; assay type: in vivo, mice; settings: FIG. 8
# Description: FIGS. 8A and 8B that the results of RNA-seq analysis of peri-infarct area of the MCAO model.
# KLK1 is a key protein in the Kallikrein-Kinin system (KKS). The KKS promotes local blood flow and vasodilation, and may also reduce inflammation and oxidative stress. KLK1 is a serine protease that plays a critical role in regulating blood pressure, blood flow, and microcirculation. It's a secretory product of the salivary glands and the pancreas, and is also found in the kidney. KLK1 has a major function of reducing blood pressure by releasing the peptide hormone Lys-bradykinin (kallidin) from low molecular weight kininogen. This affects muscle relaxation and inflammatory processes. KLK1 also has anti-inflammatory, anti-apoptotic, anti-fibrotic, and anti-oxidative actions.
# [3] = test system: primary cortical neuron culture; test: Oxygen glucose deprivation of primary cortical neuron culture; assay type: cell-based; settings: FIG. 5D
# worm Eat-2 mutant = test: Lifespan of worm Eat-2 mutant (caloric restriction model); assay type: in vivo, Caenorhabditis elegans; settings: FIG. 2B
# Method: (§1) At 150 μM, the lifespan of the wild type worm can be extended by 30-40% (FIG. 2A). Over the last two decades, there is numerous evidence supporting the life-extension effect by caloric restriction from various model systems (yeast, worm, fly, and mouse). Thus, the effect of ergothioneine on worm Eat-2 mutant was also examined.
# [4] = test system: accelerated ageing mouse model; test: Accelerated ageing mouse model; assay type: in vivo
# Description: FIGS. 5A, 5B, 5C, and 5D show the animal study in rats (FIG. 5A: untreated disease group; FIG. 5B treated disease group).
# Another aspect provides a method of treating a subject diagnosed to have a premature ageing disease or condition, comprising treating the subject with a therapeutically effective amount of compound I. In some embodiments, the premature ageing disease is Hutchinson-Gilford progeria syndrome. In some embodiments, the premature ageing disease is Werner syndrome. In some embodiments, the premature ageing disease or condition is premature ageing of skin, mucous membranes, scalp and/or hair of the subject. In some embodiments, the method may further include a step of identifying or determining the subject as having premature ageing disease or condition. Procedures of the determination step for premature ageing disease or condition are generally known in the field. As shown in the example section and FIGS. 4-6, the study (accelerated ageing mouse model) analyzed the physical appearance and activities of two groups (with and without the feeding of Compound I, 20 mg/kg daily) over the period of about 1 year.
# [5] = in vivo; cited from earlier work
# [6] = test system: adhesion molecules VACM-1, ICAM-1, and E-selectin; settings: cited from earlier work
# N2 worm = test: Heat shock survival of N2 worms; assay type: in vivo, Caenorhabditis elegans; settings: moved from 20° C. to 42° C.; a few hundred micromolar; without compound 3 hours; FIG. 2D
# Method: Besides the oxidative stress, the protective effect of ergothioneine for the worm under heat shock conditions was also examined. After the worms were cultured multiple days, they were then moved from 20° C. to 42° C. Under such a heat-shock condition, 50% of the worm died within 3 hours. However, in the presence of a few hundred micromolar concentration of ergothioneine, it extends N2 worm's average survival time from 3 hours to nearly 8-9 hours (FIG. 2D). Therefore, besides its life-extension effects under regular culture conditions, ergothioneine clearly offers protective effects to worms under oxidative stress and heat shock conditions.
# N2 C. elegans = test: Lifespan of N2 C. elegans under regular culture conditions; assay type: in vivo, Caenorhabditis elegans; settings: FIG. 2A
# Description: In this example, the biological functions of ergothioneine were investigated using (C. elegans as the model system. Using (C. elegans as the model has several prominent advantages, including short life cycle, simple experimental manipulation, and rich collection of publicly available genetic mutants (e.g., Caenorhabditis Genetics Center). In addition, its genome comprises 2/3 of human disease-related genes.
# To test the biological effect of ergothioneine, the first set of experiments was to test the toxicity level of ergothioneine on the worm model. In humans, ergothioneine is enriched up to 2 mM concentration in many parts of the body.
# as §1
# [7] = test system: stroke middle cerebral artery occlusion (MCAO) model; test: Stroke middle cerebral artery occlusion (MCAO) model; assay type: in vivo; settings: MCAO mice, vs vehicle
# Description: FIGS. 7A, 7B, 7C, and 7D show the protective effect of ergothioneine on stroke MCAO model (images of tissue sample (FIG. 7A), infarct volume (FIG. 7B), neurological deficit (FIG. 7C), and cerebral blood flow (CBF) (FIG. 7D) of Sham, vehicle, and ergothioneine treated mice).
# The MCAO model is a stroke model that uses mice and rats. The model involves inserting a surgical filament into the external carotid artery and threading it into the internal carotid artery. The filament is inserted to block blood flow for a set period of time, usually 30-120 minutes. The filament is then removed to allow reperfusion, resulting in an ischemic stroke. A sham mouse is a control animal used in […]. Sham procedures are performed on a control group participant to ensure they experience the same effects as those who receive a true operation.
# As shown, ergothioneine reduces the infarct size by at least 50%. […] As shown, ergothioneine reduces neurological deficit by at least 40%. […] As shown, ergothioneine […] cerebral blood flow by at least 60%.
# [8] = 20 mg/kg daily feeding, about 1 year, treated vs untreated group
# [9] = mice, compared to untreated mice, FIG. 5C
smiles,measurement,setting,value
"C[N+](C)(C)[C@@H](Cc1c[nH]c(=S)[nH]1)C(=O)O [ergothioneine, Ergothioneine]",protective effect under oxidative stress,N2 worms,clearly offers protective effects and alleviates the detrimental effects of oxidative stress
same,life-extension effect in daf-16 mutant,daf-16 mutant worm,the life-extension effect was abolished
same,concentration accumulated in many parts of the body,[1],up to 2 mM
same,regulation of Klk1 related Kallikrein system (RNA level),[2],up-regulate
same,cell death caused by oxygen glucose deprivation,[3],reverses cell death
same,life extension of Eat-2 worm mutant,worm Eat-2 mutant,can further extend the life
same,effect on the ageing process,"[4]; 20 mg/kg daily feeding, about 1 year",could effectively slow down the ageing process
same,average weight,[4]; [8],higher average weight
same,skin condition,[4]; [8],more smooth skin condition
same,physical activity of the untreated group relative to the treated group,"[4]; 20 mg/kg daily feeding, about 1 year, words describe the group without treatment",less active physically
same,extension of maximum lifespan,[4]; [9],at least 30%
same,extension of median lifespan,[4]; [9],at least 40%
same,blood-brain barrier passage,[5],can pass through the blood-brain barrier
same,"expression of adhesion molecules VACM-1, ICAM-1, and E-selectin",[6],decreases the expression
same,average survival time under heat shock,N2 worm,8 to 9 h
same,life-extension effect,"N2 C. elegans; 50 μM, N2 C. elegans",robust life-extension effect
same,lifespan extension,"N2 C. elegans; 150 μM, wild type worm",30-40%
same,reduction of infarct size,[7]; FIG. 7B,at least 50%
same,reduction of neurological deficit,[7]; FIG. 7C,at least 40%
same,reduction of cerebral blood flow (CBF),[7]; FIG. 7D,at least 60%
